# According to patent US10787413B2, “Derivatives of curcuminoids and use thereof as an anticancer agent” (CHINA MEDICAL UNIVERSITY, priority 2016, dated 2020):
# Where two headings read alike, the source gives them in different places.
# Experiments:
# [1] = system: MDA-MB-231 breast cancer cell; assay: MTT cell viability assay, MDA-MB-231 breast cancer cell; type: cell-based, human; conditions: Homo sapiens
# Procedure: (§1) Cell viability was evaluated by measuring the reduction in MTT to yield blue formazan. Cells were cultured in 96-well plates, allowed to attach overnight, and then treated with compounds. After treatment, MTT solution (1 mg/ml) was added to each well, and plates were incubated for another 4 h.
# [2] = system: HCT-116 colon cancer cell; assay: MTT cell viability assay, HCT-116 colon cancer cell; type: cell-based; conditions: Homo sapiens
# Procedure: as §1, with “h. Medium were removed, blue formazan was dissolved in DMSO, and the absorbance was read at 570 nm^20.” for “h.”
# PC3 prostate cancer cell = assay: MTT cell viability assay, PC3 prostate cancer cell; type: cell-based
# Procedure: as §1, with “h. Medium were removed, blue formazan was dissolved in DMSO, and the absorbance was read at 570 nm^20.” for “h.”
# T47D = assay: Cell viability, T47D breast cancer cells; type: cell-based; conditions: Homo sapiens; T47D (ER+/PR+), treated for 24 h
# Procedure: as §1, with “h. Medium were removed, blue formazan was dissolved in DMSO, and the absorbance was read at 570 nm^20.” for “h.”
# MCF-7 = assay: Cell viability, MCF-7 breast cancer cells; type: cell-based; conditions: Homo sapiens, MCF7; MCF-7 (ER+/PR+), treated for 24 h
# Procedure: as §1, with “h. Medium were removed, blue formazan was dissolved in DMSO, and the absorbance was read at 570 nm^20.” for “h.”
# MDA-MB-453 = assay: Cell viability, MDA-MB-453 breast cancer cells; type: cell-based; conditions: Homo sapiens; MDA-MB-453 (Her-2+), treated for 24 h
# Procedure: as §1, with “h. Medium were removed, blue formazan was dissolved in DMSO, and the absorbance was read at 570 nm^20.” for “h.”
# BT-474 = assay: Cell viability, BT-474 breast cancer cells; type: cell-based; conditions: Homo sapiens; BT-474 (Her-2+), treated for 24 h
# Procedure: as §1, with “h. Medium were removed, blue formazan was dissolved in DMSO, and the absorbance was read at 570 nm^20.” for “h.”
# SKBR-3 = assay: Cell viability, SKBR-3 breast cancer cells; type: cell-based; conditions: Homo sapiens, SK-BR-3; SKBR-3 (Her-2+), treated for 24 h
# Procedure: as §1, with “h. Medium were removed, blue formazan was dissolved in DMSO, and the absorbance was read at 570 nm^20.” for “h.”
# MDA-MB-468 = assay: Cell viability, MDA-MB-468 breast cancer cells; type: cell-based; conditions: Homo sapiens; MDA-MB-468 (Triple negative), treated for 24 h
# Procedure: as §1, with “h. Medium were removed, blue formazan was dissolved in DMSO, and the absorbance was read at 570 nm^20.” for “h.”
# MDA-MB-157 = assay: Cell viability, MDA-MB-157 breast cancer cells; type: cell-based; conditions: Homo sapiens; MDA-MB-157 (Triple negative), treated for 24 h
# Procedure: as §1, with “h. Medium were removed, blue formazan was dissolved in DMSO, and the absorbance was read at 570 nm^20.” for “h.”
# HS-578T = assay: Cell viability, HS-578T breast cancer cells; type: cell-based; conditions: Homo sapiens; HS-578T (Triple negative), treated for 24 h
# Procedure: as §1, with “h. Medium were removed, blue formazan was dissolved in DMSO, and the absorbance was read at 570 nm^20.” for “h.”
# [3] = system: Doxorubicin-resistant MDA-MB-231; assay: Cell viability, Doxorubicin-resistant MDA-MB-231; type: cell-based; conditions: Doxorubicin-resistant MDA-MB-231, treated for 24 h
# Procedure: as §1, with “h. Medium were removed, blue formazan was dissolved in DMSO, and the absorbance was read at 570 nm^20.” for “h.”
# MDA-MB-231 Xenograft = assay: In vivo antitumor activity, MDA-MB-231 Xenograft nude mice model; conditions: treated vs untreated control group during antitumor evaluation
# Procedure: Female nu/nu mice (5 weeks old) were from National Laboratory Animal Center, Taipei, Taiwan. Mice were maintained under the procedures and guidelines from the Institutional Animal Care and Use Committee of the National Health Research Institutes, Taipei, Taiwan. All experiments were supervised under the Institutional Animal Care and Use Committee, China Medical University, Taichung, Taiwan. MDA-MB-231 breast cancer cells (5×10^6 cells per mouse) were suspended in 0.1 ml of Matrigel solution (50% (v/v) Matrigel in PBS) and inoculated into the mammary fat pads of the mice. […] Compounds was administered P.O. once every day for 32 days. Tumor size and mouse body weight were measured once every 4 days, and tumor volume (mm3) was calculated using the equation: length×(width)^2×0.5. At the end of experiments, mice were sacrificed and tumor nodules were dissected and weighed.
smiles,measurement,setting,value
"COc1cc(/C=C/C(=O)/C=C(O)/C=C/c2ccc(O)c(OC)c2)ccc1O [Curcumin, (E,E)-1,7-bis (4-hydroxy-3-methoxyphenyl)-1,6-heptadiene-3,5-dione]",IC50,"[1]; MDA-MB-231, 24 h, read-out: IC50 24 hours",38.8 ± 3.35 µM
same,IC50,"[1]; MDA-MB-231, 48 h, read-out: IC50 48 hours",22.1 ± 2.97 µM
same,IC50,"[1]; MDA-MB-231, treated 72 hours, read-out: IC50 72 hours",16.2 µM
same,IC50,"[2]; HCT-116, treated 24 hours, read-out: IC50 24 hours",78 ± 11.2 µM
same,IC50,"[2]; HCT-116, treated 48 hours, read-out: IC50 48 hours",26.3 ± 1.38 µM
same,IC50,"[2]; HCT-116, treated 72 hours, read-out: IC50 72 hours",13.8 ± 0.5 µM
same,IC50,"PC3 prostate cancer cell; PC-3, treated 24 hours, read-out: IC50 24 hours",57.1 ± 10.1 µM
same,IC50,"PC3 prostate cancer cell; PC-3, treated 48 hours, read-out: IC50 48 hours",30 ± 0.72 µM
same,IC50,"PC3 prostate cancer cell; PC-3, treated 72 hours, read-out: IC50 72 hours",18.8 ± 1.31 µM
same,IC50,T47D,47.9 ± 3.9 µM
same,IC50,MCF-7,42.9 ± 2.36 µM
same,IC50,MDA-MB-453,32.4 ± 1.41 µM
same,IC50,BT-474,30.1 ± 1.42 µM
same,IC50,SKBR-3,42.8 ± 1.47 µM
same,IC50,MDA-MB-468,42.9 ± 2.35 µM
same,IC50,MDA-MB-157,40.4 ± 3.26 µM
same,IC50,HS-578T,55.5 ± 1.39 µM
same,IC50,[3],58.6 ± 4.03 µM
same,IC50,"[3]; Homo sapiens, MDA-MB-231, 24 h",57.6 µM
same,"body weight, behavior change and blood chemistry (serology detection)",MDA-MB-231 Xenograft,no significant difference
